PubChem BioAssay AID248 (DTP/NCI, 2004)
“And” between values parts separate entries of the source, which are not always exact repeats. Equal values may be shown once. Inconclusive results and toxic doses are left out. Cut-off read from the data, not from the text of the source: active = T/C of 150% or more; inactive = T/C below 125%.

System: L1210 leukemia ip in BDF1 mice, survival T/C
Assay: NCI In Vivo Anticancer Drug Screen. Data for tumor model L1210 Leukemia (intraperitoneal) in B6D2F1 (BDF1) mice
Conditions: endpoint: mean survival time, higher = longer survival
How it was run: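 Read-out is survival time, reported as the treated-group measurement over the vehicle-control measurement.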

[1] = dose: 150.0 mg/kg/injection, schedule: Q01DX001 (ip), vehicle: carboxymethylcellulose (CMC)
[2] = dose: 100.0 mg/kg/injection, schedule: Q01DX001 (ip), vehicle: saline
[3] = dose: 200.0 mg/kg/injection, schedule: Q01DX001 (ip), vehicle: saline
[4] = dose: 400.0 mg/kg/injection, schedule: Q01DX001 (ip), vehicle: saline
[5] = dose: 100.0 mg/kg/injection, schedule: Q04DX003 (sc), vehicle: olive oil, sesame oil, peanut oil
[6] = dose: 400.0 mg/kg/injection, schedule: Q04DX003 (sc), vehicle: olive oil, sesame oil, peanut oil
[7] = dose: 200.0 mg/kg/injection, schedule: Q01DX009 (ip), vehicle: Klucel (hydroxypropylcellulose) (HPC)
[8] = dose: 400.0 mg/kg/injection, schedule: Q01DX009 (ip), vehicle: Klucel (hydroxypropylcellulose) (HPC)
[9] = dose: 100.0 mg/kg/injection, schedule: Q04DX003 (ip), vehicle: saline
[10] = dose: 200.0 mg/kg/injection, schedule: Q04DX003 (ip), vehicle: saline
[11] = dose: 100.0 mg/kg/injection, schedule: Q01DX009 (ip), vehicle: Klucel (hydroxypropylcellulose) (HPC)

Measured: T/C

O=NN(CCCl)C(=O)Nc1cc(Cl)ccc1O
inactive: dose: 1.0 mg/kg/injection, schedule: Q01DX001 (ip), vehicle: carboxymethylcellulose (CMC) 116 % of control | dose: 2.0 mg/kg/injection, schedule: Q01DX001 (ip), vehicle: carboxymethylcellulose (CMC) 110 % of control | dose: 4.0 mg/kg/injection, schedule: Q01DX001 (ip), vehicle: carboxymethylcellulose (CMC) 116 % of control | dose: 44.0 mg/kg/injection, schedule: Q01DX009 (ip), vehicle: carboxymethylcellulose (CMC) 100 % of control | dose: 66.0 mg/kg/injection, schedule: Q01DX001 (ip), vehicle: carboxymethylcellulose (CMC) 111 % of control | dose: 66.0 mg/kg/injection, schedule: Q01DX009 (ip), vehicle: carboxymethylcellulose (CMC) 90 % of control | dose: 100.0 mg/kg/injection, schedule: Q01DX001 (ip), vehicle: carboxymethylcellulose (CMC) 114 % of control | dose: 100.0 mg/kg/injection, schedule: Q01DX009 (ip), vehicle: carboxymethylcellulose (CMC) 95 % of control | [1] 111 % of control | dose: 200.0 mg/kg/injection, schedule: Q01DX001 (ip), vehicle: carboxymethylcellulose (CMC) 115 % of control | dose: 225.0 mg/kg/injection, schedule: Q01DX001 (ip), vehicle: carboxymethylcellulose (CMC) 123 % of control | dose: 400.0 mg/kg/injection, schedule: Q01DX001 (ip), vehicle: carboxymethylcellulose (CMC) 116 % of control | dose: 800.0 mg/kg/injection, schedule: Q01DX001 (ip), vehicle: carboxymethylcellulose (CMC) 118 % of control

Nc1nc(=O)n(CCCOc2ccccc2)cc1-c1ccc(Cl)c(Cl)c1
inactive: dose: 100.0 mg/kg/injection, schedule: Q01DX001 (ip), vehicle: gum acacia 99 % of control | dose: 200.0 mg/kg/injection, schedule: Q01DX001 (ip), vehicle: gum acacia 94 % of control

[C-]1=CC2C=CC1C1[C-]=CC21.[Cl][Pd][Cl] (centres undefined)
inactive: dose: 3.13 mg/kg/injection, schedule: Q01DX009 (ip), vehicle: saline with Tween-80 103 % of control | dose: 6.25 mg/kg/injection, schedule: Q01DX009 (ip), vehicle: saline with Tween-80 98 % of control | dose: 12.5 mg/kg/injection, schedule: Q01DX009 (ip), vehicle: saline with Tween-80 100 % of control

CC(C)(CO)c1ccccc1
inactive: [2] 104 % of control | [3] 104 % of control | [4] 107 % of control

Clc1ccc(N/N=C(\Cc2ccccn2)c2ccccc2)cc1
inactive: [5] 101 % of control | dose: 200.0 mg/kg/injection, schedule: Q04DX003 (sc), vehicle: olive oil, sesame oil, peanut oil 110 % of control | [6] 103 % of control

O=CN1CCCC1C(=O)O (centres undefined)
inactive: dose: 25.0 mg/kg/injection, schedule: Q01DX009 (ip), vehicle: water 98 % of control | dose: 50.0 mg/kg/injection, schedule: Q01DX009 (ip), vehicle: water 101 % of control | dose: 100.0 mg/kg/injection, schedule: Q01DX009 (ip), vehicle: water 95 % of control | dose: 200.0 mg/kg/injection, schedule: Q01DX009 (ip), vehicle: water 101 % of control

CCC[N+]1(C)CCOCC1
inactive: dose: 75.0 mg/kg/injection, schedule: Q01DX001 (ip), vehicle: saline 94 % of control and 89 % of control

C=CC(=O)NC12CC3CC(CC(C3)C1)C2
inactive: [2] 88 % of control | dose: 100.0 mg/kg/injection, schedule: Q01DX009 (ip), vehicle: saline with Tween-80 104 % of control | [3] 93 % of control | dose: 200.0 mg/kg/injection, schedule: Q01DX009 (ip), vehicle: saline with Tween-80 97 % of control | [4] 90 % of control | dose: 400.0 mg/kg/injection, schedule: Q01DX009 (ip), vehicle: saline with Tween-80 101 % of control

CCCCCCCCC(CCCCCCCC)CC1CC2CC1C1CCCC21 (centres undefined)
inactive: dose: 75.0 mg/kg/injection, schedule: Q01DX001 (ip), vehicle: saline with Tween-80 92 % of control | dose: 150.0 mg/kg/injection, schedule: Q01DX001 (ip), vehicle: saline with Tween-80 98 % of control | dose: 300.0 mg/kg/injection, schedule: Q01DX001 (ip), vehicle: saline with Tween-80 95 % of control

Nc1ccc(OCc2nc(N)nc(N)c2-c2ccc(Cl)cc2)cc1
inactive: dose: 100.0 mg/kg/injection, schedule: Q01DX001 (ip), vehicle: Klucel (hydroxypropylcellulose) (HPC) 102 % of control | dose: 200.0 mg/kg/injection, schedule: Q01DX001 (ip), vehicle: Klucel (hydroxypropylcellulose) (HPC) 105 % of control | dose: 400.0 mg/kg/injection, schedule: Q01DX001 (ip), vehicle: Klucel (hydroxypropylcellulose) (HPC) 96 % of control

O=S(=O)(Nc1ccccn1)c1ccccc1
inactive: [7] 103 % of control | [8] 98 % of control

CN1CCN(c2nc3nnnn3c3ccccc23)CC1
inactive: dose: 50.0 mg/kg/injection, schedule: Q04DX003 (ip), vehicle: saline 101 % of control | [9] 104 % of control | [10] 101 % of control

O=C(CCl)Nc1ccccc1S(=O)(=O)F
inactive: dose: 18.75 mg/kg/injection, schedule: Q01DX009 (ip), vehicle: carboxymethylcellulose (CMC) 91 % of control | dose: 37.5 mg/kg/injection, schedule: Q01DX009 (ip), vehicle: carboxymethylcellulose (CMC) 92 % of control | dose: 75.0 mg/kg/injection, schedule: Q01DX001 (ip), vehicle: carboxymethylcellulose (CMC) 98 % of control | dose: 75.0 mg/kg/injection, schedule: Q04DX003 (ip), vehicle: carboxymethylcellulose (CMC) 94 % of control | [1] 93 % of control | dose: 150.0 mg/kg/injection, schedule: Q04DX003 (ip), vehicle: carboxymethylcellulose (CMC) 88 % of control | dose: 300.0 mg/kg/injection, schedule: Q01DX001 (ip), vehicle: carboxymethylcellulose (CMC) 97 % of control

O=C(NCCNC(=O)Nc1ccc(Cl)cc1)Nc1ccc(Cl)cc1
inactive: [11] 96 % of control | dose: 100.0 mg/kg/injection, schedule: Q04DX003 (ip), vehicle: Klucel (hydroxypropylcellulose) (HPC) 98 % of control | [7] 94 % of control | dose: 200.0 mg/kg/injection, schedule: Q04DX003 (ip), vehicle: Klucel (hydroxypropylcellulose) (HPC) 93 % of control | [8] 91 % of control | dose: 400.0 mg/kg/injection, schedule: Q04DX003 (ip), vehicle: Klucel (hydroxypropylcellulose) (HPC) 92 % of control

CC(NC1=NCCO1)c1cccc2ccccc12 (centres undefined)
inactive: dose: 25.0 mg/kg/injection, schedule: Q01DX009 (ip), vehicle: saline with Tween-80 94 % of control | dose: 50.0 mg/kg/injection, schedule: Q01DX009 (ip), vehicle: saline with Tween-80 94 % of control | dose: 100.0 mg/kg/injection, schedule: Q04DX003 (ip), vehicle: saline with Tween-80 96 % of control | dose: 200.0 mg/kg/injection, schedule: Q04DX003 (ip), vehicle: saline with Tween-80 94 % of control | dose: 400.0 mg/kg/injection, schedule: Q04DX003 (ip), vehicle: saline with Tween-80 89 % of control

O=C(N/N=C\c1ccc(F)cc1)N/N=C/c1ccc(F)cc1
inactive: dose: 100.0 mg/kg/injection, schedule: Q04DX002 (ip), vehicle: saline with Tween-80 93 % of control | dose: 200.0 mg/kg/injection, schedule: Q04DX002 (ip), vehicle: saline with Tween-80 96 % of control | dose: 400.0 mg/kg/injection, schedule: Q04DX002 (ip), vehicle: saline with Tween-80 104 % of control

Nc1ccc2c(c1)OCO2
inactive: dose: 90.0 mg/kg/injection, schedule: Q04DX003 (sc), vehicle: olive oil, sesame oil, peanut oil 106 % of control | dose: 100.0 mg/kg/injection, schedule: Q01DX009 (sc), vehicle: olive oil, sesame oil, peanut oil 107 % of control | [5] 101 % of control | dose: 133.0 mg/kg/injection, schedule: Q04DX003 (sc), vehicle: olive oil, sesame oil, peanut oil 119 % of control | dose: 200.0 mg/kg/injection, schedule: Q01DX009 (sc), vehicle: olive oil, sesame oil, peanut oil 112 % of control | [6] 108 % of control

CCC(C)C(NC(=O)C1CSC(C)(C)N1C=O)C(=O)OC (centres undefined)
inactive: [9] 106 % of control | [10] 97 % of control | dose: 400.0 mg/kg/injection, schedule: Q04DX003 (ip), vehicle: saline 103 % of control

O=C(Nc1ccc(Cl)c(Cl)c1)N(CCO)Cc1ccccc1
inactive: [11] 90 % of control | [7] 92 % of control | [8] 97 % of control
